What was measured:
[1] = target: T1, P-glycoprotein (wild-type mouse Pgp, MDR3) (Mus musculus, UniProt P21447); assay: in vitro; settings: mouse, pH 7.4
Description: Overexpression of wild-type mouse Pgp (MDR3) was achieved by using genetically engineered strains of Pichia pastoris with a 6X histidine tag. The cells were cultured in glycerol media, and methanol was used to induce the overexpression of Pgp at the Bioexpression and Fermentation Facility (BFF), University of Georgia, Athens, GA, USA. A repeated cycle of freezing using liquid nitrogen, blending, and thawing was used to lyse the Pgp-expressing P. pastoris cells. The protein was purified using affinity chromatography with nickel-nitrilotriacetic acid (Ni-NTA) resin (Thermo Fisher Scientific, Waltham, MA, USA). DDM was used to solubilize the protein, and the solution was concentrated using Amicon Ultra-15 100 kDa cut-off filters (EMD Millipore, Billerica, MA, USA). […] The purified DDM-solubilized Pgp was aliquoted and stored at −80 °C for future analysis.
Pgp was reconstituted into liposomes as previously described. Briefly, liposomes comprising 80% (w/v) Avanti Escherichia coli total lipid extract and 20% (w/v) cholesterol were dissolved in chloroform to achieve a final concentration of 10 mg mL^−1, and the volume was adjusted to 10 mL. […] The solution was subjected to ten cycles of freeze–thaw using liquid nitrogen and a water bath (67 °C), resulting in the formation of liposomes with varying sizes, and extruded eleven times in a LIPEX extruder (Northern Lipids, Burnaby, BC, Canada) to produce identical-sized liposomes, using a 400 nm cut-off filter.
(§1) Approximately 40 µL of DDM-solubilized Pgp was dialyzed for two hours against HEPES buffer (20 mM HEPES, 100 mM NaCl, 5 mM MgCl2, 2 mM DTT, pH 7.4) to remove any remnants of the detergent, DDM. The dialyzed protein was mixed with 4 mg mL^−1 of the extruded liposomes and incubated on ice for at least one hour to allow Pgp to integrate into the liposomes. To remove any additional detergent and further facilitate Pgp integration into the liposome, the solution was dialyzed for a second time for two hours in HEPES buffer to form proteoliposomes, and the concentration of Pgp reconstituted in liposomes was determined using the Bio-Rad DC Protein assay. Finally, the solution was aliquoted and stored at −80 °C for future use.
The Chifflet method is a colorimetric method that measures the amount of free inorganic phosphate (Pi) through the formation of ammonium molybdate and Pi complex, which produces a strong absorbance at 850 nm. The absorbance was measured on a 96-well plate using a CLARIOstar microplate reader (BMG Labtech, Ortenberg, Germany). […] The final concentrations of the proteoliposome and ATP were maintained at 50 nM and 3.2 mM, respectively. Orthovanadate was used as a control and run in parallel to the samples. Finally, the kinetic curves for ATPase activity were fit to a modified Michaelis-Menten equation (Equation (1)). Igor 6.2 Pro software (Wavemetrics, Tigard, OR, USA) was used for data analysis.(1) V=VmaxS/Km+S+Vbasal where V = Rate of ATP hydrolysis; Vmax = Maximum velocity of ATP hydrolysis; [S] = Substrate concentration; Km = Michaelis–Menten constant; and Vbasal = basal ATPase activity.

Pgp = settings: MDCK cell lines overexpressing Pgp; cited from earlier work
[2] = target: T1, P-glycoprotein (wild-type mouse Pgp, MDR3); assay: in vitro; settings: mouse, pH 7.4; remark: listed apart in the source
Description: Overexpression of wild-type mouse Pgp (MDR3) was achieved by using genetically engineered strains of Pichia pastoris with a 6X histidine tag. The cells were cultured in glycerol media, and methanol was used to induce the overexpression of Pgp at the Bioexpression and Fermentation Facility (BFF), University of Georgia, Athens, GA, USA. A repeated cycle of freezing using liquid nitrogen, blending, and thawing was used to lyse the Pgp-expressing P. pastoris cells. The protein was purified using affinity chromatography with nickel-nitrilotriacetic acid (Ni-NTA) resin (Thermo Fisher Scientific, Waltham, MA, USA). DDM was used to solubilize the protein, and the solution was concentrated using Amicon Ultra-15 100 kDa cut-off filters (EMD Millipore, Billerica, MA, USA). The concentration of purified protein was measured at 280 nm using a calculated extinction coefficient of 1.28 per mg mL^−1 on a Nanodrop (DeNovix, Wilmington, DE, USA). […] The purified DDM-solubilized Pgp was aliquoted and stored at −80 °C for future analysis.
as §1
The intrinsic tryptophan residues in the protein can be selectively excited and emitted at 295 nm and 330 nm wavelengths, respectively. The binding of the drug to the protein can alter the spatial arrangement encountered by the tryptophan residue(s) and thereby regulate the fluorescence intensity of the protein [52]. […] Proteoliposomes diluted to 1 µM in Chifflet buffer containing 2 mM DTT were titrated against varying concentrations of drugs. The intrinsic protein fluorescence was measured at 330 nm upon excitation at 295 nm using an Olis DM 45 spectrophotometer (Olis Corporation, Bogart, GA, USA). To nullify the effect of Rayleigh bands on the observed spectra, a 10 nm band-pass filter was inserted on the excitation and emission paths of the spectrophotometer. The drug-induced quenching of intrinsic Pgp fluorescence was corrected (Fcorrected) for factors such as dilution, background fluorescence, and inner filter effects using the equation mentioned below (Equation (2)).(2) Fcorrected=F−B10^εexbex+εembemQ/2 where Fcorrected = Drug-induced quenching of intrinsic Pgp fluorescence; F = Emitted intrinsic Pgp fluorescence at 330 nm; [Q] = Concentration of drug; εex and εem = Excitation and emission extinction coefficients, respectively; bex and bem = Path lengths of excitation (0.4 mm) and emission (10 mm) wavelengths, respectively; and B = Background fluorescence measured from drug and solvent.
The resulting quenching curves were fit using a modified Stern-Volmer equation (Equation (3)), as follows:(3) Fcorrected=FOcorrected/1+KsvQ+Funquenched where Fcorrected = The corrected fluorescence; F0(corrected) = Fluorescence recorded in the absence of drug; [Q] = Concentration of drug; Ksv = Stern–Volmer constant; and F(unquenched) = unquenched fluorescence.

[3] = tested on: Pgp mutants F336A and I340A; settings: cited from earlier work

T1 sequence (P21447 whole entry): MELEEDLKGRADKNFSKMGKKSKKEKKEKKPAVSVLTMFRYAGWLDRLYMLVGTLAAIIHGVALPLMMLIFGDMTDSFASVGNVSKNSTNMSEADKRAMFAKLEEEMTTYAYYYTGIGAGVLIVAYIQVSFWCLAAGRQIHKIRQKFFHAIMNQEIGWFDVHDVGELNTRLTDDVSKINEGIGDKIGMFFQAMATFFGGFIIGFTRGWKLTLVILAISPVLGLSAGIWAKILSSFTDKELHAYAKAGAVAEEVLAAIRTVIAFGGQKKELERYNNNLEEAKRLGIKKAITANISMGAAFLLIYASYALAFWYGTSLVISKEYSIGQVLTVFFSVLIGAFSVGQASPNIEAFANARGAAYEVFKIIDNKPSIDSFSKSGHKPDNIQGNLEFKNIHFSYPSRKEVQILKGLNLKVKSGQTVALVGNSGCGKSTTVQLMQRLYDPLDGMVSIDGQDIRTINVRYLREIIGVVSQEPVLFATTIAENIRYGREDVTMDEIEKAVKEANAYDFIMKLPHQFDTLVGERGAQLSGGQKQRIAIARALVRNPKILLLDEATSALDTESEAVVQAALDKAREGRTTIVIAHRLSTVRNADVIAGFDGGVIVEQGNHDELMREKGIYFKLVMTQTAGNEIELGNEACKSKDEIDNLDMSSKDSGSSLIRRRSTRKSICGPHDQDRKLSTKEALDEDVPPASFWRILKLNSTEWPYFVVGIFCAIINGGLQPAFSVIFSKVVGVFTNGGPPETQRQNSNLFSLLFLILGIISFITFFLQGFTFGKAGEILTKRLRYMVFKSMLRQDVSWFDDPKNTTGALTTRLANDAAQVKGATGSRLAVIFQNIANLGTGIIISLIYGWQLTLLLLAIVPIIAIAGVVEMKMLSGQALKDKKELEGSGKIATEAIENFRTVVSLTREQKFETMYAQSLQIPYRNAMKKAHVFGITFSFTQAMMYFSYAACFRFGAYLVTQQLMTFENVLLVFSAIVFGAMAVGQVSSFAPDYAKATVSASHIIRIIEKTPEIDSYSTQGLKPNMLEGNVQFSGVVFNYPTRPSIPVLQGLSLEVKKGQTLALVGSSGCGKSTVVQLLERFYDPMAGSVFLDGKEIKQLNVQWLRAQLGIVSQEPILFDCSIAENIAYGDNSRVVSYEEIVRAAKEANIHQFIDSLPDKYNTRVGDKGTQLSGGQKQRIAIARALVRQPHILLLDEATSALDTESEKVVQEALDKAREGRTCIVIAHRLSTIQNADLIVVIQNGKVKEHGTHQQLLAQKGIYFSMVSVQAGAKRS

C[C@]12CC[C@H](O)C[C@H]1CC[C@@H]1[C@@H]2CC[C@]2(C)[C@@H](C3=CC(=O)OC3)CC[C@]12O [Digitoxigenin, (3β,5β)-3,14-Dihydroxy-card-20(22)-enolide]
Km [1]: 67.6 ± 19.8 µM
Intracellular accumulation in Pgp-overexpressing cells (Pgp): no significant difference

C[C@]12CC[C@H](O)C[C@H]1CC[C@@H]1[C@@H]2C[C@@H](O)[C@]2(C)[C@@H](C3=CC(=O)OC3)CC[C@]12O [Digoxigenin, 3β,12β,14-Trihydroxy-5β,20(22)-cardenolide]
Kd [2]: 10.16 ± 0.01 µM

C[C@H]1O[C@@H](O[C@H]2[C@@H](O)C[C@H](O[C@H]3[C@@H](O)C[C@H](O[C@H]4CC[C@@]5(C)[C@H](CC[C@@H]6[C@@H]5C[C@@H](O)[C@]5(C)[C@@H](C7=CC(=O)OC7)CC[C@]65O)C4)O[C@@H]3C)O[C@@H]2C)C[C@H](O)[C@@H]1O [Digoxin]
Decrease of digoxin-Pgp interaction for mutants compared to wild-type Pgp [3]: two- to four-fold
